Reference: patent publication US9718790B2, “Triazine derivative and pharmaceutical composition having an analgesic activity comprising the same” (SHIONOGI & CO., LTD., priority 2010, dated 2017)

Biological target: human P2X3 receptor (Homo sapiens (Human), UniProt P56373)
Assay: Evaluation of human P2X3 receptor inhibitory activity (Fluo-3 calcium fluorescence, FDSS 3000, ATP stimulation);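 further: stimulus was 50 nM ATP with fluorescence followed for 3 min, and the response per well was peak post-ATP fluorescence divided by the reading at measurement start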
Format: cell-based
Conditions: C6BU-1 cells stably expressing human P2X3 receptor

Sequence of human P2X3 receptor (P56373 whole entry): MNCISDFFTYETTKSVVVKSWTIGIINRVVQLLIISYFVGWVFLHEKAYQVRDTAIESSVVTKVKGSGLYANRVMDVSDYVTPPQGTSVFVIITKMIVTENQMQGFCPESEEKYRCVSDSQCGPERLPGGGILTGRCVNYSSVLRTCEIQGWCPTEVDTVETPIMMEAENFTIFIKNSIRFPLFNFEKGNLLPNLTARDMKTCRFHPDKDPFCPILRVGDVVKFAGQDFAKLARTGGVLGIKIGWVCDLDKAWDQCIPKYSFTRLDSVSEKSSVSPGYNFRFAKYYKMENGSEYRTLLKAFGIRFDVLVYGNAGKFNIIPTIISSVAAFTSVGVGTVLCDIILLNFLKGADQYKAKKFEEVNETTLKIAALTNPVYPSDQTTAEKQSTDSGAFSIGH

**Q.** How did the IC50 turn out when `O=c1[nH]/c(=N\c2ccc(Oc3ccnc(CO)c3)cc2)n(Cc2ccc(Cl)cc2)c(=O)n1CCCO` [Compound I-1995] was run?
**A.** 5 nM

**Q.** For `CCOC(=O)CCn1c(=O)[nH]/c(=N\c2ccc(OC(C)C)c(OC)c2)n(Cc2ccc(C)cc2)c1=O` [Compound I-1246], which IC50 is on record?
**A.** 6 nM

**Q.** For `CCOC(=O)c1cc2cc(/N=c3\[nH]c(=O)n(C[C@H](C)C(=O)OC)c(=O)n3Cc3ccc(Cl)cc3)ccc2o1` [Compound I-1938], which IC50 is on record?
**A.** 312 nM

**Q.** For `CCn1c(=O)[nH]/c(=N\c2ccc(Oc3cc(CO)on3)cc2)n(Cc2ccc(Cl)cc2)c1=O` [Compound I-1968], which IC50 is on record?
**A.** 15 nM

**Q.** For `CCc1nc2ccc(/N=c3\[nH]c(=O)n(CCCCC(=O)O)c(=O)n3Cc3ccc(C)cc3)cc2s1` [Compound I-2159], which IC50 is on record?
**A.** 47 nM

**Q.** For `C[C@@H](Cn1c(=O)[nH]/c(=N\c2ccc3c(c2)COCO3)n(Cc2ccc(Cl)cc2)c1=O)C(=O)O` [Compound I-0746], which IC50 is on record?
**A.** 140 nM

**Q.** How did the IC50 turn out when `CCCc1ccc(/N=c2\[nH]c(=O)n(C[C@H](C)C(=O)O)c(=O)n2Cc2ccc(Cl)cc2)cc1C` [Compound I-1213] was run?
**A.** 104 nM

**Q.** How did the IC50 turn out when `CCn1c(=O)[nH]/c(=N\c2ccc(Oc3ccc(C(=O)O)cc3)cc2)n(Cc2ccc(Cl)cc2)c1=O` [Compound I-1969] was run?
**A.** 21 nM

**Q.** `Cc1ccc(Cn2c(=O)n(CCC(=O)O)c(=O)[nH]/c2=N\c2ccc3c(ccc(=O)n3C)c2)cc1` [Compound I-2128] was tested. Which IC50 did it give?
**A.** 287 nM

**Q.** How did the IC50 turn out when `CC(C)Oc1ccc(/N=c2\[nH]c(=O)n([C@@H]3C[C@H]3C(=O)O)c(=O)n2Cc2ccc(Cl)cc2)cc1F` [Compound I-0612] was run?
**A.** 38 nM

**Q.** For `CCn1c(=O)[nH]/c(=N\c2ccc(Oc3cncc(C(N)=O)c3)cc2)n(Cc2ccc(F)cc2)c1=O` [Compound I-2120], which IC50 is on record?
**A.** 33 nM

**Q.** `C[C@@H](Oc1ccc(/N=c2\[nH]c(=O)n(CC(=O)NCC(F)(F)F)c(=O)n2Cc2ccc(Cl)cc2)cc1)C(F)(F)F` [Compound I-1961] was tested. Which IC50 did it give?
**A.** 13 nM

**Q.** How did the IC50 turn out when `Cc1cc(/N=c2\[nH]c(=O)n(Cc3ccc(C(=O)O)o3)c(=O)n2Cc2ccc(Cl)cc2)ccc1OC(C)C` [Compound I-0710] was run?
**A.** 19 nM

**Q.** With `CCn1c(=O)[nH]/c(=N\c2ccc(Oc3ccnc(C(=O)OC)c3)cc2)n(CC2CCC(C)(C)CC2)c1=O` [Compound I-2205] as the compound, how does the IC50 read?
**A.** 9 nM

**Q.** Which IC50 does the source give for `CCn1c(=O)[nH]/c(=N\c2ccc(Oc3ccc(C)c(C(=O)OC)c3)cc2)n(Cc2ccc(Cl)cc2)c1=O` [Compound I-2015] here?
**A.** 32 nM

**Q.** For `CCn1c(=O)[nH]/c(=N\c2ccc(Oc3ccnc(O)n3)cc2)n(Cc2ccc(Cl)cc2)c1=O` [Compound I-2016], which IC50 is on record?
**A.** 5 nM

**Q.** `Cn1c(=O)[nH]/c(=N\c2ccc(Oc3ccnc(CO)c3)cc2)n(Cc2ccc(Cl)cc2)c1=O` [Compound I-2018] was tested. Which IC50 did it give?
**A.** 22 nM

**Q.** Which IC50 does the source give for `CCOC(=O)CCn1c(=O)[nH]/c(=N\c2ccc(CC(C)C)c(OC)c2)n(Cc2ccc(C)cc2)c1=O` [Compound I-1361] here?
**A.** 15 nM

Same assay, conditions: C6BU-1 cells stably expressing human P2X3 receptor, Fluo-3 fluorescence, FDSS 3000

**Q.** `COC(=O)CC1(Cn2c(=O)[nH]/c(=N\c3ccc(OC(C)C)c(Cl)c3)n(Cc3ccc(Cl)cc3)c2=O)CC1` [Compound I-0977] was tested. Which IC50 did it give?
**A.** 15 nM

**Q.** With `CC[C@@H](C)Oc1ccc(/N=c2\[nH]c(=O)n([C@H](C)CC(=O)OC)c(=O)n2Cc2ccc(C)cc2)cc1` [Compound I-0939] as the compound, how does the IC50 read?
**A.** 34 nM

**Q.** How did the IC50 turn out when `CNC(=O)Cn1c(=O)[nH]/c(=N\c2ccc(Oc3ccc(OC)nc3)cc2)n(Cc2ccc(Cl)cc2)c1=O` [Compound I-1857] was run?
**A.** 7 nM

**Q.** For `CCc1oc2ccc(/N=c3\[nH]c(=O)n(CCCC(=O)OC)c(=O)n3Cc3ccc(Cl)cc3)cc2c1C` [Compound I-1700], which IC50 is on record?
**A.** 12 nM

**Q.** With `COC(=O)[C@@H](C)Cn1c(=O)[nH]/c(=N\c2ccc(CN(C)C)c(Cl)c2)n(Cc2ccc(C)cc2)c1=O` [Compound I-1172] as the compound, how does the IC50 read?
**A.** 97 nM

**Q.** `Cc1ccc(Cn2c(=O)n(C[C@H](C)C(N)=O)c(=O)[nH]/c2=N\c2ccc(CC(C)C)c(Cl)c2)cc1` [Compound I-1616] was tested. Which IC50 did it give?
**A.** 7 nM

**Q.** `CCOC(=O)CCn1c(=O)[nH]/c(=N\c2ccc(OC(C)C)c(F)c2)n(CC2CCC(F)(F)CC2)c1=O` [Compound I-1884] was tested. Which IC50 did it give?
**A.** 296 nM

**Q.** With `CC(C)c1nc2ccc(/N=c3\[nH]c(=O)n([C@@H](C)[C@@H](C)C(=O)O)c(=O)n3Cc3ccc(Cl)cc3)cc2s1` [Compound I-1585] as the compound, how does the IC50 read?
**A.** 14 nM

**Q.** Which IC50 does the source give for `CC(C)n1ncc2cc(/N=c3\[nH]c(=O)n([C@@H](C)[C@@H](C)C(=O)O)c(=O)n3Cc3ccc(Cl)cc3)ccc21` [Compound I-1744] here?
**A.** 242 nM

**Q.** Which IC50 does the source give for `COC(=O)[C@@H](C)Cn1c(=O)[nH]/c(=N\c2ccc(OC3CCOCC3)cc2)n(Cc2ccc(C)cc2)c1=O` [Compound I-1073] here?
**A.** 92 nM

**Q.** For `Cc1cc(/N=c2\[nH]c(=O)n(C[C@H](C)C(=O)O)c(=O)n2Cc2ccc(C(C)C)cc2)ccc1OC(C)C` [Compound I-1017], which IC50 is on record?
**A.** 550 nM

**Q.** For `CC[C@@H](C)Oc1ccc(/N=c2\[nH]c(=O)n(CCC(=O)O)c(=O)n2Cc2ccc(C)cc2)cc1` [Compound I-1028], which IC50 is on record?
**A.** 78 nM

Same assay, conditions: human P2X3 receptor, Test Example 1

**Q.** `O=c1[nH]/c(=N\c2ccc(Oc3ccon3)c(F)c2)n(Cc2ccc(Cl)cc2)c(=O)n1C(CO)CO` [Compound I-2529] was tested. Which IC50 did it give?
**A.** 73 nM

**Q.** How did the IC50 turn out when `CCn1c(=O)[nH]/c(=N\c2ccc(Oc3nc(C(=O)O)c(C)s3)cc2)n(Cc2ccc(Cl)cc2)c1=O` [Compound I-2450] was run?
**A.** 8 nM

**Q.** Which IC50 does the source give for `Cc1ccc(Cn2c(=O)n(C[C@H](C)C(=O)O)c(=O)[nH]/c2=N\c2ccc(OCC3CC3)cc2)cc1` [Compound I-0838] here?
**A.** 33 nM

**Q.** For `CCOC(=O)CNc1cc(Oc2ccc(/N=c3\[nH]c(=O)n(CC)c(=O)n3Cc3ccc(Cl)cc3)cc2)ccn1` [Compound I-2549], which IC50 is on record?
**A.** 12 nM

**Q.** `CC1(Cn2c(=O)[nH]/c(=N\c3ccc(OCC4CC4)cc3)n(Cc3ccc(Cl)cc3)c2=O)COC(C)(C)OC1` [Compound I-2615] was tested. Which IC50 did it give?
**A.** 7 nM

**Q.** Which IC50 does the source give for `O=C(O)Cn1c(=O)[nH]/c(=N\c2ccc(Oc3cccnn3)cc2)n(Cc2ccc(Cl)cc2)c1=O` [Compound I-2663] here?
**A.** 330 nM

**Q.** How did the IC50 turn out when `CCn1c(=O)[nH]/c(=N\c2ccc(Oc3ccon3)cc2)n(Cc2ccc(Cl)cc2)c1=O` [Compound I-2357] was run?
**A.** 12 nM

**Q.** `CCn1c(=O)[nH]/c(=N\c2ccc(Oc3ccc(NCC(N)=O)nc3)cc2)n(Cc2ccc(Cl)cc2)c1=O` [Compound I-2625] was tested. Which IC50 did it give?
**A.** 3 nM

**Q.** Which IC50 does the source give for `CCCOc1ccc(/N=c2\[nH]c(=O)n(CCCC(=O)OCC)c(=O)n2Cc2ccc(C)cc2)cc1Cl` [Compound I-0861] here?
**A.** 19 nM

**Q.** With `COC(=O)c1cncc(Oc2ccc(/N=c3\[nH]c(=O)n(C)c(=O)n3Cc3ccc(Cl)cc3)cc2)n1` [Compound I-2469] as the compound, how does the IC50 read?
**A.** 19 nM

**Q.** How did the IC50 turn out when `O=c1[nH]/c(=N\c2ccc(Oc3cnccn3)cc2)n(Cc2ccc(Cl)cc2)c(=O)n1CC(CO)CO` [Compound I-2710] was run?
**A.** 6 nM

**Q.** For `CNC(=O)Cn1c(=O)[nH]/c(=N\c2ccc(Oc3ncccn3)cc2)n(Cc2ccc(Cl)cc2)c1=O` [Compound I-2687], which IC50 is on record?
**A.** 35 nM

**Q.** With `COC(=O)[C@@H](C)Cn1c(=O)[nH]/c(=N\c2ccc(OCC(C)C)c(C)c2)n(Cc2ccc(Cl)cc2)c1=O` [Compound I-0831] as the compound, how does the IC50 read?
**A.** 77 nM

**Q.** Which IC50 does the source give for `COC(=O)[C@@H](C)Cn1c(=O)[nH]/c(=N\c2ccc(OC3CC3)cc2)n(Cc2ccc(C)cc2)c1=O` [Compound I-1514] here?
**A.** 24 nM

**Q.** With `CCOC(=O)Cn1c(=O)[nH]/c(=N\c2ccc(Oc3ncns3)cc2)n(Cc2ccc(Cl)cc2)c1=O` [Compound I-2628] as the compound, how does the IC50 read?
**A.** 4 nM

**Q.** `CCOc1c(Cl)cc(/N=c2\[nH]c(=O)n(C[C@H](C)C(=O)OC)c(=O)n2Cc2ccc(C)cc2)cc1Cl` [Compound I-1499] was tested. Which IC50 did it give?
**A.** 19 nM

**Q.** With `O=c1[nH]/c(=N\c2ccc(Oc3ncccn3)cc2)n(Cc2ccc(Cl)cc2)c(=O)n1CC(CO)CO` [Compound I-2544] as the compound, how does the IC50 read?
**A.** 11 nM
